PubChem BioAssay (NCI)
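Five compound concentrations were applied to cells in 96-well plates for 48 hours; endpoints were derived by simple linear interpolation of the resulting dose-response curve. At the TGI there is no net growth.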

Experiments:
Test in all cases: inhibition of tumour cell growth, NCI panel, 48 h
786-0 renal = system: 786-0 renal
A498 renal = system: A498 renal
A549 NSCLC = system: A549 NSCLC
ACHN renal = system: ACHN renal
BT-549 breast = system: BT-549 breast
CAKI-1 renal = system: CAKI-1 renal
CCRF-CEM leukemia = system: CCRF-CEM leukemia
COLO 205 colon = system: COLO 205 colon
DLD-1 colon = system: DLD-1 colon
DMS 114 small cell lung = system: DMS 114 small cell lung
DMS 273 small cell lung = system: DMS 273 small cell lung
DU-145 prostate = system: DU-145 prostate
EKVX NSCLC = system: EKVX NSCLC
HCC-2998 colon = system: HCC-2998 colon
HCT-116 colon = system: HCT-116 colon
HCT-15 colon = system: HCT-15 colon
HL-60(TB) leukemia = system: HL-60(TB) leukemia
HOP-62 NSCLC = system: HOP-62 NSCLC
HOP-92 NSCLC = system: HOP-92 NSCLC
HT29 colon = system: HT29 colon
IGROV1 ovarian = system: IGROV1 ovarian
K-562 leukemia = system: K-562 leukemia
KM12 colon = system: KM12 colon
KM20L2 colon = system: KM20L2 colon
LOX IMVI melanoma = system: LOX IMVI melanoma
LXFL 529 NSCLC = system: LXFL 529 NSCLC
M14 melanoma = system: M14 melanoma
M19-MEL melanoma = system: M19-MEL melanoma
MALME-3M melanoma = system: MALME-3M melanoma
MCF7 breast = system: MCF7 breast
MDA-MB-231 breast = system: MDA-MB-231 breast
MDA-MB-435 = system: MDA-MB-435
MDA-N = system: MDA-N
MOLT-4 leukemia = system: MOLT-4 leukemia
NCI-H226 lung = system: NCI-H226 lung
NCI-H23 lung = system: NCI-H23 lung
NCI-H460 lung = system: NCI-H460 lung
NCI-H522 lung = system: NCI-H522 lung
NCI/ADR-RES ovarian = system: NCI/ADR-RES ovarian
OVCAR-3 ovarian = system: OVCAR-3 ovarian
OVCAR-4 ovarian = system: OVCAR-4 ovarian
OVCAR-5 ovarian = system: OVCAR-5 ovarian
OVCAR-8 ovarian = system: OVCAR-8 ovarian
PC-3 prostate = system: PC-3 prostate
RPMI-8226 leukemia = system: RPMI-8226 leukemia
RXF 393 renal = system: RXF 393 renal
SF-268 CNS = system: SF-268 CNS
SF-295 CNS = system: SF-295 CNS
SF-539 CNS = system: SF-539 CNS
SK-MEL-2 melanoma = system: SK-MEL-2 melanoma
SK-MEL-28 melanoma = system: SK-MEL-28 melanoma
SK-MEL-5 melanoma = system: SK-MEL-5 melanoma
SK-OV-3 ovarian = system: SK-OV-3 ovarian
SN12C renal = system: SN12C renal
SNB-19 CNS = system: SNB-19 CNS
SNB-75 CNS = system: SNB-75 CNS
SNB-78 CNS = system: SNB-78 CNS
SR leukemia = system: SR leukemia
SW-620 colon = system: SW-620 colon
T-47D breast = system: T-47D breast
TK-10 renal = system: TK-10 renal
U251 CNS = system: U251 CNS
UACC-257 melanoma = system: UACC-257 melanoma
UACC-62 melanoma = system: UACC-62 melanoma
UO-31 renal = system: UO-31 renal
XF 498 CNS = system: XF 498 CNS

Compound: COc1ccc2nc(C)cc(NCCCCCCCCCNc3cc(C)nc4ccc(OC)cc34)c2c1
- TGI (786-0 renal): 2.31 µM
- TGI (A498 renal): 43.4 µM
- TGI (A549 NSCLC): 8.3 µM
- TGI (ACHN renal): 21.2 µM
- TGI (BT-549 breast): 21.1 µM
- TGI (CAKI-1 renal): 18.3 µM
- TGI (CCRF-CEM leukemia): 11.2 µM
- TGI (COLO 205 colon): 7.47 µM
- TGI (DLD-1 colon): 6.61 µM
- TGI (DMS 114 small cell lung): 2.51 µM
- TGI (DMS 273 small cell lung): 13.4 µM
- TGI (DU-145 prostate): 19.5 µM
- TGI (EKVX NSCLC): 7.36 µM
- TGI (HCC-2998 colon): 2.73 µM
- TGI (HCT-116 colon): 1.46 µM
- TGI (HCT-15 colon): 5.32 µM
- TGI (HL-60(TB) leukemia): 5.25 µM
- TGI (HOP-62 NSCLC): 10.6 µM
- TGI (HOP-92 NSCLC): 5.21 µM
- TGI (HT29 colon): 2.05 µM
- TGI (IGROV1 ovarian): 9.1 µM
- TGI (K-562 leukemia): 2.93 µM
- TGI (KM12 colon): 2.74 µM
- TGI (KM20L2 colon): 6.36 µM
- TGI (LOX IMVI melanoma): 1.99 µM
- TGI (LXFL 529 NSCLC): 2.4 µM
- TGI (M14 melanoma): 5.9 µM
- TGI (M19-MEL melanoma): 31.9 µM
- TGI (MALME-3M melanoma): 17.7 µM
- TGI (MCF7 breast): 2.47 µM
- TGI (MDA-MB-231 breast): 2.54 µM
- TGI (MDA-MB-435): 2.95 µM
- TGI (MDA-N): 2.83 µM
- TGI (MOLT-4 leukemia): > 34.7 µM
- TGI (NCI-H226 lung): 27.6 µM
- TGI (NCI-H23 lung): 6.89 µM
- TGI (NCI-H460 lung): 1.77 µM
- TGI (NCI-H522 lung): 2.13 µM
- TGI (NCI/ADR-RES ovarian): 34.8 µM
- TGI (OVCAR-3 ovarian): 2.76 µM
- TGI (OVCAR-4 ovarian): 9.32 µM
- TGI (OVCAR-5 ovarian): 15.2 µM
- TGI (OVCAR-8 ovarian): 1.42 µM
- TGI (PC-3 prostate): 5.01 µM
- TGI (RPMI-8226 leukemia): > 24.7 µM
- TGI (RXF 393 renal): 5.96 µM
- TGI (SF-268 CNS): 11.3 µM
- TGI (SF-295 CNS): 2.33 µM
- TGI (SF-539 CNS): 2.4 µM
- TGI (SK-MEL-2 melanoma): 10.8 µM
- TGI (SK-MEL-28 melanoma): 29.9 µM
- TGI (SK-MEL-5 melanoma): 3.11 µM
- TGI (SK-OV-3 ovarian): 25.7 µM
- TGI (SN12C renal): 11.4 µM
- TGI (SNB-19 CNS): 10.2 µM
- TGI (SNB-75 CNS): 12.5 µM
- TGI (SNB-78 CNS): 26.4 µM
- TGI (SR leukemia): 29.3 µM
- TGI (SW-620 colon): 2.32 µM
- TGI (T-47D breast): 3.46 µM
- TGI (TK-10 renal): 9.77 µM
- TGI (U251 CNS): 5.77 µM
- TGI (UACC-257 melanoma): 21.2 µM
- TGI (UACC-62 melanoma): 7.34 µM
- TGI (UO-31 renal): 28.3 µM
- TGI (XF 498 CNS): 3.69 µM
